HELM strings list units from the 5' end as sugar, base in round brackets, then linkage (d deoxyribose, r ribose, m 2'-O-methyl, p phosphodiester). Strings are as the collection lists them; they lack the last nucleoside at the 3' end of the tested compound. [moe] = 2'-O-(2-methoxyethyl) (MOE); [sp] = phosphorothioate linkage; [m5C] = 5-methylcytosine

The target of this data set is GFAP. The data set can be described thus: mouse, dose not given. The settings on record: ASO.
In turn, “RNA1{[moe](A)[sp].[moe](G)p.[moe]([m5C])p.[moe](A)p.[moe](T)[sp].d(A)[sp].d(G)[sp].d(G)[sp].d(G)[sp].d(A)[sp].d(T)[sp].d(A)[sp].d(T)[sp].d([m5C])[sp].d([m5C])[sp].[moe]([m5C])p.[moe](A)p.[moe]([m5C])[sp].[moe]([m5C])}$$$$ (last 3' nucleoside missing)” displayed a 3 h FOB score of 2 score 0-7.

“RNA1{[moe](A)[sp].[moe](G)p.[moe](A)p.[moe](G)p.[moe](T)[sp].d(G)[sp].d(T)[sp].d(G)[sp].d(T)[sp].d(A)[sp].d(T)[sp].d(T)[sp].d(A)[sp].d(G)[sp].d(G)[sp].[moe](A)p.[moe](T)p.[moe]([m5C])[sp].[moe]([m5C])}$$$$ (last 3' nucleoside missing)” returned a 3 h FOB score of 5 score 0-7. As for “RNA1{[moe]([m5C])[sp].[moe](G)p.[moe](T)p.[moe]([m5C])p.d(A)[sp].d([m5C])[sp].d(A)[sp].d(T)[sp].d(T)[sp].d([m5C])[sp].d(A)[sp].d([m5C])[sp].d(T)[sp].d(A)[sp].[moe](A)p.[moe](T)p.[moe](A)p.[moe](T)[sp].[moe](T)}$$$$ (last 3' nucleoside missing)”, the figure is 0 score 0-7. In turn, “RNA1{[moe](T)[sp].[moe](A)p.[moe](G)p.[moe](T)p.d([m5C])[sp].d(A)[sp].d(G)[sp].d([m5C])[sp].d([m5C])[sp].d(T)[sp].d(G)[sp].d(G)[sp].d(T)[sp].d(T)[sp].[moe](A)p.[moe](G)p.[moe]([m5C])p.[moe]([m5C])[sp].[moe](T)}$$$$ (last 3' nucleoside missing)” displayed a 3 h FOB score of 3 score 0-7. As for “RNA1{[moe](G)[sp].[moe](G)p.[moe](T)p.[moe](T)p.[moe](A)[sp].d(G)[sp].d([m5C])[sp].d([m5C])[sp].d(T)[sp].d(T)[sp].d(T)[sp].d([m5C])[sp].d(T)[sp].d(G)[sp].d(A)[sp].[moe](T)p.[moe](G)p.[moe]([m5C])[sp].[moe](T)}$$$$ (last 3' nucleoside missing)”, the figure is 3 score 0-7; as for “RNA1{[moe](A)[sp].[moe]([m5C])p.[moe](A)p.[moe](T)p.[moe](T)p.d([m5C])[sp].d(A)[sp].d([m5C])[sp].d(T)[sp].d(A)[sp].d(A)[sp].d(T)[sp].d(A)[sp].d(T)[sp].d(T)[sp].[moe](T)p.[moe](A)p.[moe](A)[sp].[moe]([m5C])}$$$$ (last 3' nucleoside missing)”, 0 score 0-7; as for “RNA1{[moe](G)[sp].[moe](A)p.[moe]([m5C])p.[moe](T)p.[moe](A)[sp].d(T)[sp].d([m5C])[sp].d(T)[sp].d(A)[sp].d(G)[sp].d(G)[sp].d(A)[sp].d(T)[sp].d(T)[sp].d(T)[sp].[moe](G)p.[moe](G)p.[moe]([m5C])[sp].[moe](A)}$$$$ (last 3' nucleoside missing)”, 5 score 0-7.

Substance “RNA1{[moe](A)[sp].[moe](G)p.[moe]([m5C])p.[moe](A)p.[moe](T)p.[moe](T)p.d(T)[sp].d(G)[sp].d(T)[sp].d([m5C])[sp].d(T)[sp].d(T)[sp].d(T)[sp].d(A)[sp].d(T)[sp].d(T)[sp].[moe](T)p.[moe](T)[sp].[moe](T)}$$$$ (last 3' nucleoside missing)” showed a 3 h FOB score of 1 score 0-7.

In the case of “RNA1{[moe]([m5C])[sp].[moe](G)p.[moe](T)p.[moe]([m5C])p.[moe](A)[sp].d([m5C])[sp].d(A)[sp].d(T)[sp].d(T)[sp].d([m5C])[sp].d(A)[sp].d([m5C])[sp].d(T)[sp].[moe](A)p.[moe](A)p.[moe](T)[sp].[moe](A)}$$$$ (last 3' nucleoside missing)”, the 3 h FOB score is 0 score 0-7.

Regarding “RNA1{[moe]([m5C])[sp].[moe](A)p.[moe]([m5C])p.[moe](A)p.[moe](T)p.d(T)[sp].d([m5C])[sp].d(A)[sp].d([m5C])[sp].d(T)[sp].d(A)[sp].d(A)[sp].d(T)[sp].d(A)[sp].d(T)[sp].[moe](T)p.[moe](T)p.[moe](A)[sp].[moe](A)}$$$$ (last 3' nucleoside missing)”, the 3 h FOB score is 0 score 0-7. As for “RNA1{[moe](T)[sp].[moe](T)p.[moe](T)p.[moe](A)p.[moe](T)p.[moe]([m5C])p.d(T)[sp].d(G)[sp].d(T)[sp].d(G)[sp].d([m5C])[sp].d(T)[sp].d(T)[sp].d(T)[sp].d(A)[sp].d(G)[sp].[moe](T)p.[moe](G)[sp].[moe](A)}$$$$ (last 3' nucleoside missing)”, the figure is 3 score 0-7.

In turn, “RNA1{[moe](G)[sp].[moe](A)p.[moe](T)p.[moe](T)p.[moe](T)[sp].d(T)[sp].d([m5C])[sp].d([m5C])[sp].d([m5C])[sp].d([m5C])[sp].d(G)[sp].d(T)[sp].d([m5C])[sp].d(T)[sp].d(T)[sp].[moe](T)p.[moe](G)p.[moe](G)[sp].[moe](T)}$$$$ (last 3' nucleoside missing)” gave a 3 h FOB score of 6 score 0-7. For “RNA1{[moe](T)[sp].[moe]([m5C])p.[moe](A)p.[moe](G)p.[moe]([m5C])p.[moe]([m5C])p.d(T)[sp].d(G)[sp].d(G)[sp].d(T)[sp].d(T)[sp].d(A)[sp].d(G)[sp].d([m5C])[sp].d([m5C])[sp].d(T)[sp].[moe](T)p.[moe](T)[sp].[moe]([m5C])}$$$$ (last 3' nucleoside missing)”, the 3 h FOB score was 4 score 0-7. As for “RNA1{[moe](T)[sp].[moe]([m5C])p.[moe](T)p.[moe](G)p.[moe]([m5C])[sp].d(T)[sp].d([m5C])[sp].d(G)[sp].d(G)[sp].d(G)[sp].d([m5C])[sp].d([m5C])[sp].d([m5C])[sp].d([m5C])[sp].d(T)[sp].[moe]([m5C])p.[moe](A)p.[moe](T)[sp].[moe](G)}$$$$ (last 3' nucleoside missing)”, the figure is 2 score 0-7; as for “RNA1{[moe](G)[sp].[moe](T)p.[moe](G)p.[moe](T)p.[moe](A)p.d(T)[sp].d(T)[sp].d(A)[sp].d(G)[sp].d(G)[sp].d(A)[sp].d(T)[sp].d([m5C])[sp].d([m5C])[sp].d([m5C])[sp].[moe](A)p.[moe](T)p.[moe]([m5C])[sp].[moe](T)}$$$$ (last 3' nucleoside missing)”, 2 score 0-7. Regarding “RNA1{[moe](G)[sp].[moe](G)p.[moe]([m5C])p.[moe](A)p.[moe]([m5C])[sp].d(A)[sp].d(G)[sp].d(T)[sp].d(T)[sp].d([m5C])[sp].d([m5C])[sp].d([m5C])[sp].d(A)[sp].d(G)[sp].d(A)[sp].[moe](T)p.[moe](A)p.[moe]([m5C])[sp].[moe](T)}$$$$ (last 3' nucleoside missing)”, the 3 h FOB score stood at 5 score 0-7. Turning to “RNA1{[moe](G)[sp].[moe](T)p.[moe](G)p.[moe](A)p.[moe]([m5C])[sp].d(T)[sp].d(A)[sp].d(T)[sp].d([m5C])[sp].d(T)[sp].d(A)[sp].d(G)[sp].d(G)[sp].d(A)[sp].d(T)[sp].[moe](T)p.[moe](T)p.[moe](G)[sp].[moe](G)}$$$$ (last 3' nucleoside missing)”, the 3 h FOB score stood at 6 score 0-7. Turning to “RNA1{[moe](G)[sp].[moe]([m5C])p.[moe](A)p.[moe](G)p.[moe](T)[sp].d(A)[sp].d(T)[sp].d(T)[sp].d(A)[sp].d([m5C])[sp].d([m5C])[sp].d(T)[sp].d([m5C])[sp].[moe](T)p.[moe](A)p.[moe]([m5C])[sp].[moe](T)}$$$$ (last 3' nucleoside missing)”, the 3 h FOB score came out at 1 score 0-7. As for “RNA1{[moe]([m5C])[sp].[moe]([m5C])p.[moe](T)p.[moe](T)p.d(G)[sp].d(T)[sp].d(G)[sp].d(A)[sp].d(T)[sp].d(T)[sp].d(T)[sp].d(T)[sp].d([m5C])[sp].d([m5C])[sp].[moe]([m5C])p.[moe]([m5C])p.[moe](G)p.[moe](T)[sp].[moe]([m5C])}$$$$ (last 3' nucleoside missing)”, the figure is 1 score 0-7; as for “RNA1{[moe](T)[sp].[moe](T)p.[moe](T)p.[moe](G)p.[moe](G)p.d(T)[sp].d(G)[sp].d([m5C])[sp].d(T)[sp].d(T)[sp].d(T)[sp].d(T)[sp].d(G)[sp].d([m5C])[sp].d([m5C])[sp].[moe]([m5C])p.[moe]([m5C])p.[moe]([m5C])[sp].[moe](T)}$$$$ (last 3' nucleoside missing)”, 2 score 0-7. As for “RNA1{[moe](T)[sp].[moe](G)p.[moe]([m5C])p.[moe](T)p.[moe](T)[sp].d(T)[sp].d(T)[sp].d(G)[sp].d([m5C])[sp].d([m5C])[sp].d([m5C])[sp].d([m5C])[sp].d([m5C])[sp].d(T)[sp].d([m5C])[sp].[moe](G)p.[moe](A)p.[moe](A)[sp].[moe](T)}$$$$ (last 3' nucleoside missing)”, the figure is 4 score 0-7. In turn, “RNA1{[moe](T)[sp].[moe](G)p.[moe](G)p.[moe](T)p.d(G)[sp].d([m5C])[sp].d(T)[sp].d(T)[sp].d(T)[sp].d(T)[sp].d(G)[sp].d([m5C])[sp].d([m5C])[sp].d([m5C])[sp].[moe]([m5C])p.[moe]([m5C])p.[moe](T)p.[moe](G)[sp].[moe](T)}$$$$ (last 3' nucleoside missing)” returned a 3 h FOB score of 1 score 0-7. As for “RNA1{[moe](T)[sp].[moe]([m5C])p.[moe](T)p.[moe](T)p.[moe](T)[sp].d(A)[sp].d(T)[sp].d(T)[sp].d(T)[sp].d(T)[sp].d(T)[sp].d([m5C])[sp].d([m5C])[sp].d(T)[sp].d([m5C])[sp].[moe](A)p.[moe](G)p.[moe]([m5C])[sp].[moe](G)}$$$$ (last 3' nucleoside missing)”, the figure is 1 score 0-7; as for “RNA1{[moe]([m5C])[sp].[moe]([m5C])p.[moe]([m5C])p.[moe]([m5C])p.[moe]([m5C])[sp].d(T)[sp].d([m5C])[sp].d(T)[sp].d(A)[sp].d(T)[sp].d([m5C])[sp].d([m5C])[sp].d([m5C])[sp].d(T)[sp].d([m5C])[sp].[moe]([m5C])p.[moe]([m5C])p.[moe](A)[sp].[moe](G)}$$$$ (last 3' nucleoside missing)”, 0 score 0-7; as for “RNA1{[moe](A)[sp].[moe](G)p.[moe](T)p.[moe](A)p.[moe](T)[sp].d(T)[sp].d(A)[sp].d([m5C])[sp].d([m5C])[sp].d(T)[sp].d([m5C])[sp].d(T)[sp].d(A)[sp].[moe]([m5C])p.[moe](T)p.[moe](A)[sp].[moe](G)}$$$$ (last 3' nucleoside missing)”, 3 score 0-7.

For the origin of these results see the OligoGym collection.
